Results as given in US7850981B2, “Immuno-adjuvant PDT treatment of metastatic tumors” (QLT, Inc., priority 1999, dated 2010).

Key:
[1] = test system: Lewis Lung Carcinoma (LLC); assay: In vitro lymphocyte proliferation assay (MTS) with lymph node cells of LLC-bearing mice treated with PDT or PDV; assay type: cell-based, C57B1/6 mice; conditions: mean±standard deviation; lymph nodes 7-10 days after therapy; cultured with LLC antigen; PDV n=7 (ConA responders)
Source text: In order to assess the potential usefulness of various adjuvants and treatment parameters in PDV, an in vitro lymphocyte proliferation assay was designed and employed in a murine tumor model. The assay measures tumour-specific lymphocyte (tumor immunity) responses from animals treated with PDT and PDT combined with adjuvant (PDV). This permits the rapid evaluation of various PDT/adjuvant administration protocols.
Female C57B1/6 mice are implanted subcutaneously on the shaved right flank with the Lewis Lung Carcinoma (LLC) cell line. When tumours develop to approximately 5 mm diameter animals are treated with PDT or PDV. PDT is performed by delivering 1.0 mg/kg verteporfin i.v. 30 min prior to illumination of 125 J/cm^2 delivered at 70 mW/cm^2 (treatment time=29 min, 4 sec). […] Animals are monitored for general health and re-growth of the tumour following therapy.
Seven to 10 days following therapy, animals are sacrificed and inguinal, axillary, cervical, and periaortic lymph nodes are aseptically removed. […] Following 3 to 5 days of culture, the degree of proliferation is assessed using 3-(4,5-dimethylthiazol-2-yl)-5-(3-carboxymethoxyphenyl)-2-(4-sulfophenyl)-2H-tetrazolium, inner salt (Owen's reagent, MTS, from PROMEGA™), a variation of the MTT assay which produces a soluble formazan product which absorbs light at 490 nm. […]

[2] = test system: M1 (rhabdomyosarcoma); assay: M1 tumor response after PDT (verteporfin 1.0 mg/kg i.v. + light) with or without intratumoral DETOX B-SE; assay type: in vivo, mice
Experimental: DETOX™ B-SE (Stable Emulsion) (LOT # PD: 071899-575-114) is a 1.0% squalene oil-in-water emulsion containing 145 μg/mL cell wall skeleton (CWS) from Mycobacterium phlei and 25 μg/mL monophosphoryl lipid A (MPL) from Salmonella minnesota R595 [Corixa Inc.]. DETOX™ B-SE was prepared according to the manufacturer's recommendations. Two concentrations were prepared by diluting DETOX™ B-SE in sterile PBS: 1:10 (7.25 μg/mL CWS, 1.25 μg/mL MPL) or 1:2.5 (29.0 μg/mL CWS, 5.0 μg/mL MPL). Aliquots (50 μL) were drawn into a tuberculin syringe with a 27 gauge needle prior to intratumoral injection.
Mice used in the experiments described below were implanted intradermally with a suspension of 2×10^4 M1 (rhabdomyosarcoma) cells on the right flank. Approximately six to ten days after implantation, the site was shaved and tumor growth measured using vernier calipers. Only mice bearing tumors 4-6 mm in diameter were selected for use.
Mice treated with PDT or PDV received 1.0 mg/kg of Verteporfin for Injection (VFI) administered intravenously by tail vein injection. Immediately after injection, the mice were placed in a darkened row of an enclosed, ventilated animal rack (condo unit) for 30 minutes. After 30 minutes, each mouse was secured in a metal holder so that the tumor was centered in a 1.0 cm diameter exposure area. The tumor site was exposed to light from an argon pump dye laser for either 14 minutes, to deliver 75 J/cm^2, or 4 minutes and 40 seconds, to deliver 25 J/cm^2. The light doses selected were chosen to deliver either a high PDT dose (75 J/cm^2) or a low PDT dose (25 J/cm 2). The exposure time in seconds was determined by dividing the light dose (J/cm^2) by light Intensity (W/cm^2).
Immediately following illumination and while still immobilized in the metal holder, mice received a single intratumoral injection of 50 μL of the 1:10 dilution DETOX™ B-SE, designed to deliver the adjuvant to the center of the tumor mass. Mice in treatment Groups 2 and 5 received 50 μL of 1:2.5 dilution following PDT. Mice in treatment Groups 3 and 6 received PDT treatment, but not adjuvant. Mice in Group 7 remained untreated and were monitored for tumor growth only. Mice in treatment Groups 1 and 4 were treated with 50 μL of 1:10 dilution following PDT.

[3] = Optimal PDT (75 J/cm^2), day 3 post-PDT
[4] = Optimal PDT (75 J/cm^2), day 7 post-PDT
[5] = Optimal PDT (75 J/cm^2), day 10 post-PDT
[6] = Optimal PDT (75 J/cm^2), day 14 post-PDT
[7] = Optimal PDT (75 J/cm^2), day 17 post-PDT
[8] = Optimal PDT (75 J/cm^2), day 20 post-PDT
[9] = Sub-optimal PDT (25 J/cm^2), day 3 post-PDT
[10] = Sub-optimal PDT (25 J/cm^2), day 7 post-PDT
[11] = Sub-optimal PDT (25 J/cm^2), day 10 post-PDT
[12] = Sub-optimal PDT (25 J/cm^2), day 14 post-PDT
[13] = Sub-optimal PDT (25 J/cm^2), day 17 post-PDT
[14] = Sub-optimal PDT (25 J/cm^2), day 20 post-PDT

benzoporphyrin derivative monoacid ring A [verteporfin]
lymphocyte proliferation, percent of lymphocytes without antigen [1]: 108±11%
Survival (tumour less than 1 cm long, not euthanized) [2, 3]: 100%
Tumor-free mice [2, 3]: 100%
Survival (tumour less than 1 cm long, not euthanized) [2, 4]: 100%
Tumor-free mice [2, 4]: 100%
Survival (tumour less than 1 cm long, not euthanized) [2, 5]: 100%
Tumor-free mice [2, 5]: 100%
Survival (tumour less than 1 cm long, not euthanized) [2, 6]: 100%
Tumor-free mice [2, 6]: 90%
Survival (tumour less than 1 cm long, not euthanized) [2, 7]: 100%
Tumor-free mice [2, 7]: 90%
Survival (tumour less than 1 cm long, not euthanized) [2, 8]: 90%
Tumor-free mice [2, 8]: 90%
Survival (tumour less than 1 cm long, not euthanized) [2, 9]: 100%
Tumor-free mice [2, 9]: 100%
Survival (tumour less than 1 cm long, not euthanized) [2, 10]: 100%
Tumor-free mice [2, 10]: 90%
Survival (tumour less than 1 cm long, not euthanized) [2, 11]: 100%
Tumor-free mice [2, 11]: 80%
Survival (tumour less than 1 cm long, not euthanized) [2, 12]: 100%
Tumor-free mice [2, 12]: 50%
Survival (tumour less than 1 cm long, not euthanized) [2, 13]: 80%
Tumor-free mice [2, 13]: 70%
Survival (tumour less than 1 cm long, not euthanized) [2, 14]: 70%
Tumor-free mice [2, 14]: 70%
animals with tumors that were regressing or had regressed completely by Day 20 ([2]; low dose PDT (25 J/cm^2), adjuvant, where given, high dose (1:2.5)): 2 out of 10 animals
